The CheMixHub ionic liquid set

Assay: xn = mol fraction of the nth substance listed

CCCC[n+]1ccn(C)c1.O=S(=O)([N-]S(=O)(=O)C(F)(F)F)C(F)(F)F + CCO
Settings	electrical conductivity [S/m]	viscosity [mPa·s]
293 K, 100 kPa, x1 = 0.5784	–	20.7
293.3 K, 100 kPa, x1 = 0.4606	–	13.8
293.3 K, 100 kPa, x1 = 0.747	–	32.1
293.61 K, 100 kPa, x1 = 0.2688	–	6.37
293.61 K, 100 kPa, x1 = 1	–	61.8
293.91 K, 100 kPa, x1 = 0.2129	–	5.12
293.91 K, 100 kPa, x1 = 0.4606	–	13.5
293.91 K, 100 kPa, x1 = 0.6609	–	24.2
294.21 K, 100 kPa, x1 = 0.4215	–	12.22
294.21 K, 100 kPa, x1 = 0.6609	–	23.9
294.21 K, 100 kPa, x1 = 1	–	60.2
294.52 K, 100 kPa, x1 = 0.747	–	30.8
294.52 K, 100 kPa, x1 = 0.8264	–	38.5
294.52 K, 100 kPa, x1 = 1	–	59.4
294.82 K, 100 kPa, x1 = 0.4215	–	11.98
294.82 K, 100 kPa, x1 = 1	–	58.6
295.12 K, 100 kPa, x1 = 0.4215	–	11.87
295.12 K, 100 kPa, x1 = 0.747	–	30.1
295.42 K, 100 kPa, x1 = 0.2129	–	4.94
295.42 K, 100 kPa, x1 = 0.2688	–	6.11
295.42 K, 100 kPa, x1 = 0.4606	–	12.94
295.73 K, 100 kPa, x1 = 0.8264	–	36.7
296.64 K, 100 kPa, x1 = 0.2688	–	5.94
296.64 K, 100 kPa, x1 = 0.4606	–	12.48
296.64 K, 100 kPa, x1 = 1	–	54.1
296.94 K, 100 kPa, x1 = 0.4606	–	12.36
296.94 K, 100 kPa, x1 = 0.747	–	28.4
297.24 K, 100 kPa, x1 = 0.2688	–	5.85
297.24 K, 100 kPa, x1 = 0.4215	–	11.09
297.24 K, 100 kPa, x1 = 0.5784	–	18.17
297.24 K, 100 kPa, x1 = 0.747	–	28.1
297.55 K, 100 kPa, x1 = 0.8264	–	34.1
297.85 K, 100 kPa, x1 = 1	–	51.4
298 K, 100 kPa, x1 = 0.02	0.415	–
298 K, 100 kPa, x1 = 0.03	0.5634	–
298 K, 100 kPa, x1 = 0.05	–	1.663
298 K, 100 kPa, x1 = 0.06	0.8844	–
298 K, 100 kPa, x1 = 0.07	0.958	–
298 K, 100 kPa, x1 = 0.0999	–	2.413
298 K, 100 kPa, x1 = 0.1	1.118	–
298 K, 100 kPa, x1 = 0.1999	–	4.331
298 K, 100 kPa, x1 = 0.2	1.28	–
298 K, 100 kPa, x1 = 0.2993	–	6.629
298 K, 100 kPa, x1 = 0.3	1.216	–
298 K, 100 kPa, x1 = 0.397	–	9.56
298 K, 100 kPa, x1 = 0.4	1.09	–
298 K, 100 kPa, x1 = 0.4836	–	12.74
298 K, 100 kPa, x1 = 0.5	0.9534	–
298 K, 100 kPa, x1 = 0.6	0.8239	–
298 K, 100 kPa, x1 = 0.6978	–	23.61
298 K, 100 kPa, x1 = 0.7	0.6839	–
298 K, 100 kPa, x1 = 0.8	0.575	–
298 K, 100 kPa, x1 = 0.8001	–	30.86
298 K, 100 kPa, x1 = 0.8987	–	38.32
298 K, 100 kPa, x1 = 0.9	0.4819	–
298 K, 100 kPa, x1 = 1	–	49.7
298.15 K, 100 kPa, x1 = 0.2129	–	4.64
298.15 K, 100 kPa, x1 = 0.2688	–	5.73
298.15 K, 101 kPa, x2 = 0.1174	–	38.5
298.45 K, 100 kPa, x1 = 0.6609	–	21
298.45 K, 100 kPa, x1 = 0.747	–	27
298.76 K, 100 kPa, x1 = 0.4215	–	10.58
298.76 K, 100 kPa, x1 = 0.8264	–	32.6
299.06 K, 100 kPa, x1 = 0.2129	–	4.55
299.06 K, 100 kPa, x1 = 0.5784	–	17.18
299.06 K, 100 kPa, x1 = 0.6609	–	20.6
299.67 K, 100 kPa, x1 = 0.4606	–	11.41
299.97 K, 100 kPa, x1 = 0.2129	–	4.45
299.97 K, 100 kPa, x1 = 0.5784	–	16.72
300.27 K, 100 kPa, x1 = 0.2129	–	4.42
300.27 K, 100 kPa, x1 = 0.4215	–	10.11
300.27 K, 100 kPa, x1 = 0.747	–	25.4
300.27 K, 100 kPa, x1 = 0.8264	–	30.7
300.58 K, 100 kPa, x1 = 0.4215	–	10.02
300.88 K, 100 kPa, x1 = 0.2688	–	5.37
300.88 K, 100 kPa, x1 = 0.4215	–	9.92
301.18 K, 100 kPa, x1 = 0.2688	–	5.34
301.48 K, 100 kPa, x1 = 0.2129	–	4.3
302.7 K, 100 kPa, x1 = 0.2129	–	4.18
302.7 K, 100 kPa, x1 = 0.2688	–	5.15
302.7 K, 100 kPa, x1 = 0.747	–	23.5
302.7 K, 100 kPa, x1 = 0.8264	–	28.1
303 K, 100 kPa, x1 = 0.4606	–	10.38
303 K, 100 kPa, x1 = 0.747	–	23.2
303.3 K, 100 kPa, x1 = 0.2688	–	5.08
303.91 K, 100 kPa, x1 = 0.8264	–	26.8
304.52 K, 100 kPa, x1 = 0.4606	–	9.95
304.52 K, 100 kPa, x1 = 0.5784	–	14.59
304.52 K, 100 kPa, x1 = 1	–	39.3
304.82 K, 100 kPa, x1 = 0.2688	–	4.9
304.82 K, 100 kPa, x1 = 0.4215	–	8.85
304.82 K, 100 kPa, x1 = 0.747	–	21.9
305.12 K, 100 kPa, x1 = 1	–	38.4
306.03 K, 100 kPa, x1 = 0.2688	–	4.76
306.33 K, 100 kPa, x1 = 0.5784	–	13.83
306.33 K, 100 kPa, x1 = 0.8264	–	24.6
306.64 K, 100 kPa, x1 = 0.2688	–	4.69
306.64 K, 100 kPa, x1 = 0.6609	–	16.39
306.94 K, 100 kPa, x1 = 0.2129	–	3.8
307.24 K, 100 kPa, x1 = 0.4215	–	8.27
307.24 K, 100 kPa, x1 = 0.4606	–	9.23
308.15 K, 100 kPa, x1 = 0.2688	–	4.53
308.15 K, 100 kPa, x1 = 0.6609	–	15.67
308.45 K, 100 kPa, x1 = 0.2129	–	3.67
308.45 K, 100 kPa, x1 = 0.6609	–	15.53
308.45 K, 100 kPa, x1 = 0.747	–	19.5
308.76 K, 100 kPa, x1 = 0.4215	–	7.93
308.76 K, 100 kPa, x1 = 0.5784	–	12.88
308.76 K, 100 kPa, x1 = 0.747	–	19.3
309.06 K, 100 kPa, x1 = 0.2688	–	4.44
309.67 K, 100 kPa, x1 = 0.4215	–	7.73
309.67 K, 100 kPa, x1 = 1	–	32.4
309.97 K, 100 kPa, x1 = 0.4606	–	8.58
309.97 K, 100 kPa, x1 = 0.747	–	18.6
310.58 K, 100 kPa, x1 = 0.747	–	18.3
310.88 K, 100 kPa, x1 = 0.2129	–	3.47
310.88 K, 100 kPa, x1 = 0.5784	–	12.12
310.88 K, 100 kPa, x1 = 0.8264	–	20.9
311.18 K, 100 kPa, x1 = 0.4606	–	8.31
311.48 K, 100 kPa, x1 = 0.2129	–	3.42
311.79 K, 100 kPa, x1 = 0.4606	–	8.18
311.79 K, 100 kPa, x1 = 0.5784	–	11.8
311.79 K, 100 kPa, x1 = 0.747	–	17.58
311.79 K, 100 kPa, x1 = 0.8264	–	20.3
312.09 K, 100 kPa, x1 = 0.2688	–	4.13
312.09 K, 100 kPa, x1 = 0.6609	–	13.95
312.39 K, 100 kPa, x1 = 0.2688	–	4.1
312.39 K, 100 kPa, x1 = 0.4606	–	8.05
312.7 K, 100 kPa, x1 = 0.2688	–	4.07
313 K, 100 kPa, x1 = 0.747	–	16.94
313 K, 100 kPa, x1 = 1	–	28.8
313.3 K, 100 kPa, x1 = 0.4215	–	7.02
313.61 K, 100 kPa, x1 = 0.8264	–	19
313.91 K, 100 kPa, x1 = 0.6609	–	13.23
313.91 K, 100 kPa, x1 = 0.747	–	16.47
314.21 K, 100 kPa, x1 = 0.2129	–	3.21
314.21 K, 100 kPa, x1 = 0.2688	–	3.93
314.21 K, 100 kPa, x1 = 0.747	–	16.32
314.52 K, 100 kPa, x1 = 0.5784	–	10.92
314.52 K, 100 kPa, x1 = 0.747	–	16.17
314.82 K, 100 kPa, x1 = 0.6609	–	12.88
315.12 K, 100 kPa, x1 = 0.8264	–	18.1
315.42 K, 100 kPa, x1 = 0.2688	–	3.82
315.42 K, 100 kPa, x1 = 0.6609	–	12.66
315.73 K, 100 kPa, x1 = 0.4215	–	6.59
315.73 K, 100 kPa, x1 = 0.5784	–	10.55
315.73 K, 100 kPa, x1 = 0.6609	–	12.55
316.03 K, 100 kPa, x1 = 0.2688	–	3.77
316.33 K, 100 kPa, x1 = 0.4606	–	7.27
316.64 K, 100 kPa, x1 = 0.4215	–	6.44
316.64 K, 100 kPa, x1 = 0.5784	–	10.29
316.64 K, 100 kPa, x1 = 1	–	25.4
316.94 K, 100 kPa, x1 = 0.6609	–	12.12
316.94 K, 100 kPa, x1 = 0.8264	–	17
317.24 K, 100 kPa, x1 = 0.6609	–	12.01
317.55 K, 100 kPa, x1 = 0.2688	–	3.64
317.55 K, 100 kPa, x1 = 0.4215	–	6.29
317.55 K, 100 kPa, x1 = 0.5784	–	10.03
317.85 K, 100 kPa, x1 = 0.4215	–	6.24
317.85 K, 100 kPa, x1 = 0.6609	–	11.8
318.15 K, 100 kPa, x1 = 0.2688	–	3.58
318.15 K, 100 kPa, x1 = 0.4606	–	6.94
318.76 K, 100 kPa, x1 = 0.4606	–	6.83
318.76 K, 100 kPa, x1 = 0.5784	–	9.69
318.76 K, 100 kPa, x1 = 1	–	23.7
319.06 K, 100 kPa, x1 = 0.2129	–	2.87
319.67 K, 100 kPa, x1 = 0.4215	–	5.97
319.67 K, 100 kPa, x1 = 0.747	–	13.83
319.97 K, 100 kPa, x1 = 0.4606	–	6.63
319.97 K, 100 kPa, x1 = 0.5784	–	9.37
320.27 K, 100 kPa, x1 = 0.5784	–	9.29
320.27 K, 100 kPa, x1 = 0.747	–	13.58
320.27 K, 100 kPa, x1 = 0.8264	–	15.24
320.58 K, 100 kPa, x1 = 0.4215	–	5.83
321.18 K, 100 kPa, x1 = 0.4606	–	6.43
321.18 K, 100 kPa, x1 = 0.6609	–	10.73
321.48 K, 100 kPa, x1 = 0.747	–	13.09
321.79 K, 100 kPa, x1 = 0.2688	–	3.29
321.79 K, 100 kPa, x1 = 0.4606	–	6.33
322.09 K, 100 kPa, x1 = 0.2129	–	2.67
322.09 K, 100 kPa, x1 = 0.4215	–	5.62
322.09 K, 100 kPa, x1 = 1	–	21.3
322.39 K, 100 kPa, x1 = 0.747	–	12.74
322.7 K, 100 kPa, x1 = 0.747	–	12.63
323 K, 100 kPa, x1 = 0.4606	–	6.15

CN(C)C=O + CCCC[n+]1ccn(C)c1.[Cl-]
Settings	viscosity [mPa·s]
288.15 K, 101 kPa, x1 = 1	0.94

CN1CCCC1=O + CCCCCCCCn1cc[n+](C)c1.N#C[S-]
101 kPa, x2 = 0
Settings	viscosity [mPa·s]
288.15 K	2.127
298.15 K	1.785
308.15 K	1.543
318.15 K	1.306
